Test results reported in patent US20250129067A1 (Progentos Therapeutics, Inc., priority 2021, published 2025).

Columns and labels:
[1] = test system: Oligodendrocyte progenitor cells (OPCs); test: In vitro OPC differentiation assay, GPR17 expression (immunocytochemistry); details: 72 hours, fold change over vehicle; for GPR17 Fold Induction (Over Vehicle; 3 μM): 3 μM (10× concentration, final 0.3 μM)
PDGFRα = PDGFRα (Homo sapiens (Human), UniProt P16234); test: PDGFRα kinase enzyme assay (Promega PDGFRα Kinase Enzyme System, ADP-Glo); format: biochemical; details: 11-point dose response, 10,000 nM to 0.169 nM; 150 uM ATP; BLQ = below limit of quantitation; read-out: IC50 Values on PDGFRα Kinase Inhibition, IC50
Protocol: The PDGFRα enzyme assays were conducted per the manufacturer's directions (Promega PDGFRα Kinase Enzyme System and ADP Glo Assay Cat #V8011). […] 20 ng of purified PDGFRα protein was added to the test article. […] ADP-Glo was added to halt the kinase reaction and deplete the remaining ATP. Kinase detection reagent, containing luciferase and luciferin, was used to convert the ADP signal into luminescence. Luminescence was measured using a Molecular Devices Spectramax ID5 and compared to a standard curve to determine kinase activity. IC50s were calculated using Prism 9, Graphpad software.

PDGFRα, sequence (P16234 24-1089): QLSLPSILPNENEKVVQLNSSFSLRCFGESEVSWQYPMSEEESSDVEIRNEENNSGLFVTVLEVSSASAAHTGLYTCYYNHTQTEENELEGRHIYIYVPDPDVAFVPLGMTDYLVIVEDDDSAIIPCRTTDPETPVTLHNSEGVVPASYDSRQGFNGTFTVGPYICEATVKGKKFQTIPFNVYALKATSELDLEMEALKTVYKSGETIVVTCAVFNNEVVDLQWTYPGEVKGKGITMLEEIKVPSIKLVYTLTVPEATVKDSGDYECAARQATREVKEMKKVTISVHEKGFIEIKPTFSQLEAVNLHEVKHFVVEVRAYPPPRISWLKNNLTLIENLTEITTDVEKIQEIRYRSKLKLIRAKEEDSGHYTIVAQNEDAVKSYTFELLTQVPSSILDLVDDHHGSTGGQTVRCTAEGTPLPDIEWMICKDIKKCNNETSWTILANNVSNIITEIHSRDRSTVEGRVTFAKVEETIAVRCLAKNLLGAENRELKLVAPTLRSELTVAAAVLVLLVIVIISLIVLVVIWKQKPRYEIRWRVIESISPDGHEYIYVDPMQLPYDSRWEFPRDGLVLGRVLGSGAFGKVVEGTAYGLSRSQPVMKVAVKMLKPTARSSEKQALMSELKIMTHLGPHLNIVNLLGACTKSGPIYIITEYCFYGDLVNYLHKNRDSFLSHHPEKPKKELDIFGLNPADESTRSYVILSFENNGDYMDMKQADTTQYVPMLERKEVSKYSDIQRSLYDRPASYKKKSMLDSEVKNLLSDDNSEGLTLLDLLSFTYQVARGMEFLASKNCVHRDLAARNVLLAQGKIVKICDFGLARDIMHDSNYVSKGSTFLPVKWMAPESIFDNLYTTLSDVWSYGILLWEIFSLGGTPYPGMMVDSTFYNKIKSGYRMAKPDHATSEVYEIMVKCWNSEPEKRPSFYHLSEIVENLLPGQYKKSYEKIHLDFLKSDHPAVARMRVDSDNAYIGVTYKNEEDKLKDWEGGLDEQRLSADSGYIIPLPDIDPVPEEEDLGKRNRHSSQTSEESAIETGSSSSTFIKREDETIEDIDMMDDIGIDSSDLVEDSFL

SMILES | GPR17 Fold Induction (Over Vehicle; 3 μM) [1] | IC50 (PDGFRα) [µM] | GPR17 Fold Induction (Over Vehicle; 5 μM) ([1]; 5 μM (10× concentration, final 0.5 μM))
CCC(O)c1cnc(N2CCN(c3cnn4cc(-c5cnn(C)c5)ccc34)CC2)nc1 (stereo not drawn) [Compound 287, 1-(2-{4-[6-(1-methyl-1H-pyrazol-4-yl)pyrazolo[1,5-a]pyridin-3-yl]piperazin-1-yl}pyrimidin-5-yl)propan-1-ol] | 6.48 | 2.47 | 
Cn1cc(-c2ccc3c(N4CCN(C(=O)OCC5CC(F)(F)C5)CC4)cnn3c2)cn1 [Compound 308, (3,3-difluorocyclobutyl)methyl 4-[6-(1-methyl-1H-pyrazol-4-yl)pyrazolo[1,5-a]pyridin-3-yl]piperazine-1-carboxylate] | 3.67 | 2.11 | 
Cn1cc(-c2ccc3c(N4CCN(C(=O)O[C@@H]5CCc6cc(Cl)ccc65)CC4)cnn3c2)cn1 [Compound 314, (1R)-5-chloro-2,3-dihydro-1H-inden-1-yl 4-[6-(1-methyl-1H-pyrazol-4-yl)pyrazolo[1,5-a]pyridin-3-yl]piperazine-1-carboxylate] | 1.64 | 7.55 | 
Cn1cc(-c2ccc3c(N4CCN(C(=O)OC(C)(C)C)CC4=O)cnn3c2)cn1 [Compound 28, tert-butyl 4-[6-(1-methyl-1H-pyrazol-4-yl)pyrazolo[1,5-a]pyridine-3-yl]-3-oxopiperazine-1-carboxylate] | 1.84 | > 10 | 
CN1CCC(c2ccc3c(N4CCN(C(=O)OC(C)(C)C)CC4)cnn3c2)C1 (stereo not drawn) [Compound 223, tert-butyl 4-(6-(1-methylpyrrolidin-3-yl)pyrazolo[1,5-a]pyridin-3-yl)piperazine-1-carboxylate] | 1.13 | 9.25 | 
CN1CCC(c2ccc3c(N4CCN(C(=O)OC(C)(C)C)CC4)cnn3c2)CC1 [Compound 225, tert-butyl 4-(6-(1-methylpiperidin-4-yl)pyrazolo[1,5-a]pyridin-3-yl)piperazine-1-carboxylate] | 1.55 | > 10 | 
CCCCC(O)c1cnc(N2CCN(c3cnn4cc(-c5cnn(C)c5)ccc34)CC2)nc1 (stereo not drawn) [Compound 168, 1-(2-(4-(6-(1-methyl-1H-pyrazol-4-yl)pyrazolo[1,5-a]pyridin-3-yl)piperazin-1-yl)pyrimidin-5-yl)pentan-1-ol] | 6.43 | 0.105 | 
Cn1cc(-c2ccc3c(N4CCN(C(=O)OCC5CCOCC5)CC4)cnn3c2)cn1 [Compound 14, Tetrahydro-2H-pyran-4-ylmethyl 4-[6-(1-methyl-1H-pyrazol-4-yl)pyrazolo[1,5-a]pyridin-3-yl]piperazine-1-carboxylate] | 1.11 | 4.31 | 
CC(C)NC(=O)N1CCN(c2cnn3cc(-c4cnn(C)c4)ccc23)CC1 [Compound 47, N-isopropyl 4-[6-(1-methyl-1H-pyrazol-4-yl)pyrazolo[1,5-a]pyridin-3-yl]piperazine-1-carboxamide] | 1.13 | 3.99 | 
CC(C)(C)OC(=O)N1CCN(c2cnc3cc(C4CCOC4)ncn23)CC1 (stereo not drawn) [Compound 90, tert-butyl 4-(7-(tetrahydrofuran-3-yl)imidazo[1,2-c]pyrimidin-3-yl)piperazine-1-carboxylate] | 0.92 | > 10 | 
C[C@@H](NS(=O)(=O)N1CCN(c2cnn3cc(-c4cnn(C)c4)ccc23)CC1)c1ccc(Cl)cc1 [Compound 293, (R)-N-(1-(4-chlorophenyl)ethyl)-4-(6-(1-methyl-1H-pyrazol-4-yl)pyrazolo[1,5-a]pyridin-3-yl)piperazine-1-sulfonamide] | 7.29 | 5.25 | 
Cn1cc(-c2ccc3c(NCC(=O)Nc4ncc(Cc5ccccc5)cn4)cnn3c2)cn1 [Compound 244, N-(5-benzylpyrimidin-2-yl)-2-((6-(1-methyl-1H-pyrazol-4-yl)pyrazolo[1,5-a]pyridin-3-yl)amino) acetamide] | 4.76 | 2.14 | 
Cn1cc(-c2ccc3c(N4CCN(c5ncc(Cc6cscn6)cn5)CC4)cnn3c2)cn1 [Compound 172, 4-((2-(4-(6-(1-methyl-1H-pyrazol-4-yl)pyrazolo[1,5-a]pyridin-3-yl)piperazin-1-yl)pyrimidin-5-yl)methyl)thiazole] | 4.90 | 0.71 | 
Cn1cc(-c2ccc3c(N4CCN(c5ncc(Cc6ccoc6)cn5)CC4)cnn3c2)cn1 [Compound 169, 3-(4-(5-(furan-3-ylmethyl)pyrimidin-2-yl)piperazin-1-yl)-6-(1-methyl-1H-pyrazol-4-yl)pyrazolo[1,5-a]pyridine] | 9.79 | 0.825 | 
Cn1cc(-c2cnn3c(N4CCN(S(=O)(=O)NCc5ccc(C(F)(F)F)cc5)CC4)cnc3c2)cn1 [Compound 296, 4-(7-(1-methyl-1H-pyrazol-4-yl)imidazo[1,2-b]pyridazin-3-yl)-N-(4-(trifluoromethyl)benzyl)piperazine-1-sulfonamide] | 10.65 | 0.397 | 
Cn1cc(-c2ccc3c(N4CCN(c5ncc(Cc6ccccc6)cn5)C(=O)C4)cnn3c2)cn1 [Compound 144, 1-(5-benzylpyrimidin-2-yl)-4-(6-(1-methyl-1H-pyrazol-4-yl)pyrazolo[1,5-a]pyridin-3-yl)piperazin-2-one] | 2.64 | 4.53 | 
Cn1cc(-c2ccc3c(N4CCN(c5ncc(CC(O)c6ccccc6)cn5)CC4)cnn3c2)cn1 (stereo not drawn) [Compound 164, 2-(2-(4-(6-(1-methyl-1H-pyrazol-4-yl)pyrazolo[1,5-a]pyridin-3-yl)piperazin-1-yl)pyrimidin-5-yl)-1-phenylethan-1-ol] | 5.94 | 0.784 | 
Cn1cc(-c2ccc3c(C4CCC(C(=O)OCc5ccccc5)CC4)cnn3c2)cn1 (stereo not drawn) [Compound 136, benzyl 4-(6-(1-methyl-1H-pyrazol-4-yl)pyrazolo[1,5-a]pyridin-3-yl)cyclohexane-1-carboxylate] | 3.64 | > 10 | 
Cn1cc(-c2ccc3c(NCCCNc4ncc(Cc5ccccc5)cn4)cnn3c2)cn1 [Compound 124, N^1-(5-benzylpyrimidin-2-yl)-N^3-(6-(1-methyl-1H-pyrazol-4-yl)pyrazolo[1,5-a]pyridin-3-yl)propane-1,3-diamine] | 1.47 | > 10 | 
C[C@@H](OC(=O)N1CCN(c2cnn3cc(-c4cnn(C)c4)ccc23)CC1)c1ccncc1 [Compound 289, (R)-1-(pyridin-4-yl)ethyl 4-(6-(1-methyl-1H-pyrazol-4-yl)pyrazolo[1,5-a]pyridin-3-yl)piperazine-1-carboxylate] | 7.44 | 0.43 | 
C[C@@H](OC(=O)N1CCN(c2cnc3nc(-c4cnn(C)c4)ccn23)CC1)c1ccccc1 [Compound 116, (R)-1-phenylethyl 4-(7-(1-methyl-1H-pyrazol-4-yl)imidazo[1,2-a]pyrimidin-3-yl)piperazine-1-carboxylate] | 4.31 | 6.52 | 
Cn1cc(-c2cc3ncc(N4CCCN(c5ncc(Cc6ccccc6)cn5)CC4)n3cn2)cn1 [Compound 114, 3-(4-(5-benzylpyrimidin-2-yl)-1,4-diazepan-1-yl)-7-(1-methyl-1H-pyrazol-4-yl)imidazo[1,2-c]pyrimidine] | 0.33 | > 10 | 
Cn1cc(-c2ccc3c(N4CCN(c5ncc(Cc6nnco6)cn5)CC4)cnn3c2)cn1 [Compound 180, 2-((2-(4-(6-(1-methyl-1H-pyrazol-4-yl)pyrazolo[1,5-a]pyridin-3-yl)piperazin-1-yl)pyrimidin-5-yl)methyl)-1,3,4-oxadiazole] | 4.05 | 4.33 | 
Cn1cc(-c2ccc3c(N4CCNCC4)cnn3c2)cn1 [Compound 12, 1-[6-(1-methylpyrazol-4-yl)pyrazolo[1,5-a]pyridin-3-yl]piperazine] | 0.68 | > 10 | 
Cn1cc(-c2ccc3c(N4CCN(S(=O)(=O)NCc5ccc(Cl)cc5)CC4)cnn3c2)cn1 [Compound 292, N-(4-chlorobenzyl)-4-(6-(1-methyl-1H-pyrazol-4-yl)pyrazolo[1,5-a]pyridin-3-yl)piperazine-1-sulfonamide] | 9.78 | 0.05 | 
Cn1nnc(-c2ccc3c(N4CCN(C(=O)OC(C)(C)C)CC4)cnn3c2)n1 [Compound 237, tert-butyl 4-(6-(2-methyl-2H-tetrazol-5-yl)pyrazolo[1,5-a]pyridin-3-yl)piperazine-1-carboxylate] | 0.95 | > 10 | 
CN(C)CCn1cc(-c2ccc3c(N4CCN(c5ncc(Cc6ccccc6)cn5)CC4)cnn3c2)cn1 [Compound 43, 2-(4-{3-[4-(5-benzylpyrimidin-2-yl)piperazin-1-yl]pyrazolo[1,5-a]pyridin-6-yl}-1H-pyrazol-1-yl)-N,N-dimethylethanamine] | 12.48 | 0.385 | 6.92
CC(C)N(C)C(=O)N1CCN(c2cnn3cc(-c4cnn(C)c4)ccc23)CC1 [Compound 252, N-isopropyl-N-methyl-4-[6-(1-methyl-1H-pyrazol-4-yl)pyrazolo[1,5-a]pyridin-3-yl]piperazine-1-carboxamide] | 1.79 | 0.674 | 
